# Several values for one entry are separate records, joined by “and”; a condition that tells them apart may be missing. Identical values can stand only once.
# Legend:
# [1] = tested on: human foreskin fibroblasts (HFF); experiment: Human foreskin fibroblast growth inhibition assay (SYBR Safe); assay type: cell-based; details: Homo sapiens, Fibroblast; 72 h, HFF; read-out: IC50, human fibroblast growth inhibition
# Method: HFF cell growth inhibition assays commenced by adding 5000 cells to each well of a 96-well plate. 10 µg/mL cycloheximide was used as a no-growth control. DNA replication (indicating growth) was measured at the specified time using SYBR Safe DNA Gel Stain (Invitrogen 33102) and a fluorescence microplate reader. […]
# Human Foreskin Fibroblast Growth Inhibition Assays:
# The HFF cell line was maintained under routine culture conditions in DMEM containing 3.7 g/L NaHCO3 supplemented with 10% v/v newborn calf serum (NCS), 50 units/mL penicillin, 50 μg/mL streptomycin, 10 μg/mL gentamicin, 0.25 μg/mL amphotericin B, and 0.2 mM L-glutamine at 37 °C in a humidified 5% CO2 incubator. […]
# HFF cells were detached from a flask using 0.25% Trypsin with 0.2 g/L EDTA (Sigma T4049) and washed with culture media. Cells were incubated with a serial dilution of each compound, or media/DMSO alone. Cycloheximide at 10 µg/mL was used as a positive control to determine background fluorescence. Approximately 5 000 cells were seeded in each well. Plates were incubated at 37 °C for 72 hours (until reaching confluency) and the media was removed. Plates were transferred to a -18 °C freezer. Plates were thawed and SYBR Safe DNA Gel Stain (final concentration 1/10,000) diluted in lysis buffer (as above) was added. Fluorescence was read at 490 nm excitation/ 520 nm emission on a FLUOstar Optima fluorescence plate reader. […]
# P. berghei liver stages = experiment: Plasmodium berghei liver stage growth inhibition assay (luminescence, in Huh7 cells); details: for P. berghei liver stage growth, dose-response data points (Figure 3A): replicate data points; for P. berghei liver stage growth, dose-response data points (Figure 3A) / Figure 3E dose-response value (replicates): listed as BC9B
# Method: Growth inhibition or cell viability were assessed by incubation with a serial dilution of test compounds, solvent controls (DMSO, ethanol, ethyl acetate), or culture media alone in 96-well plates, with detection of fluorescence, luminescence, or absorbance in microplate readers after 24–96 h unless otherwise specified.
# Huh7 cells were seeded at a density of 10,000 cells per well of a 96-well plate, or 20,000 cells per collagen-coated coverslip. After 24 h, test compounds were added the wells were inoculated with P. berghei liver stage sporozoites dissected from infected A. stephensi salivary glands with 5000–10,000 sporozoites per well or 10,000–20,000 sporozoites per coverslip. Uninfected wells served as a control for background luminescence. Luminescence signal was measured 48 h post-invasion by addition of 1:1 ONE-Glo^TM substrate (Promega) with a luminescence microplate reader. Coverslips were fixed, stained, and imaged, with all parasites on each coverslip imaged and delineated as described (Petersen et al, [2017]) using Fiji ImageJ (Schindelin et al, [2012]). Data are presented as a percentage of the size or parasite number of the solvent control to normalize for differences between experiments.
# Growth inhibition data were normalised by subtracting background fluorescence, luminescence, absorbance, or percentage of cells from a no-growth or no-viability control (high drug concentration, no-parasite control, or time = 0 measurement as specified), and expressed as a percentage of the growth or cell percentage in the negative control (culture media alone or solvent control) at the indicated timepoint (or to the highest measurement reached during the assay for Fig. EV3).
# Plasmodium berghei ANKA Bergreen (22) or GFP-Luc (RMgm-29) (23), respectively
# expressing green fluorescent protein (GFP) or a GFP-Luciferase fusion protein, were
# maintained under routine conditions in SWR/J Mus musculus mice and Anopheles stephensi
# Growth inhibition of P. berghei liver-stages was investigated after infection of human
# hepatoma cells (Huh7) and subsequent growth for 48 hours at 37° C, 5% CO2 and 80%
# humidity. The day prior to infection, 10,000 Huh7 cells were seeded in dark-sided 96-well
# microplates (Greiner Bio One). On the day of infection, compounds or solvent controls
# (DMSO) were serially diluted in culture media and 5,000 – 10,000 Bergreen or GFP-Luc
# sporozoites were added per well following dissection from infected A. stephensi salivary
# glands. Uninfected wells served as control for background luminescence. To promote invasion,
# the plates were centrifuged at 1,550 g for 5 minutes. After 60 minutes, the media was
# completely replaced with fresh, prewarmed media with the matching drug concentrations.
# Media was partially replaced with new drug dilutions over the following two days. 48 hours
# post-infection, luminescence signal was measured by addition of 1:1 ONE-GloTM substrate
# (Promega) to the wells, followed by detection at 300 – 700 nm using a Synergy HTX plate
# [2] = tested on: human embryonic kidney cells (HEK293); experiment: Human embryonic kidney cell viability assay (MTT); assay type: cell-based; details: Homo sapiens; 96 h, HEK293; read-out: IC50, human embryonic kidney cell inhibition (viability)
# In short: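 HEK293 cells, 5,000 per well, exposed to serially diluted compound for 96 hours; 10 µg/mL cycloheximide as background control. Viability by MTT (0.45 mg/mL, 2 h), SDS solubilisation, absorbance at 570 nm.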
# [3] = tested on: Toxoplasma gondii tachyzoites (RH strain); experiment: Toxoplasma growth inhibition assay (tdTomato fluorescence, in HFF cells); assay type: cell-based; details: Toxoplasma gondii, HFF, 72 h; read-out: IC50, T. gondii tachyzoite growth inhibition
# Method: Fluorescence was measured daily with a fluorescence microplate reader for one week, and the background fluorescence from the time 0 reading was subtracted from all other measurements. […]
# Toxoplasma Growth Inhibition Assays:
# Growth inhibition was investigated as described previously (26). Fluorescent Toxoplasma gondii parasites were inoculated into an optical bottom 96-well plate containing confluent human foreskin fibroblast (HFF) host cells at a density of 2,000 parasites/well, with a serial dilution of each compound, or culture media/DMSO (0.1% v/v) alone. Plates were measured daily with a FluoStar Optima fluorescence plate reader at 540 nm excitation and 590 nm emission for one week, and the background fluorescence from the time 0 reading was subtracted from all other measurements. […]
# [4] = tested on: P. falciparum stage V gametocytes; experiment: P. falciparum gametocyte viability assay (MitoTracker, flow cytometry), stage V; assay type: cell-based, Plasmodium falciparum; details: 48 h; for Gametocyte stage V viability, percentage of control: listed as BC9B
# Method: Gametocyte assays commenced seven days (stage III–IV) or ten days (stage V) post-invasion. […]
# Plasmodium falciparum Gametocyte Viability Assays:
# Asexual P. falciparum parasites were induced to form gametocytes as described (21).
# Synchronized trophozoite-stage parasites at 2% parasitaemia were incubated overnight and […]
# haematocrit maintained at 4%. On the subsequent day (designated as day 0) of gametocytogenesis, the culture containing early ring-stage parasites was first purified by sorbitol synchronisation to remove asynchronous trophozoites, and passed through a magnetic field in a sterile MACS® column in a SuperMACSTM II magnet to remove remaining late-stage parasites or later-stage gametocytes (negative selection). The culture medium was supplemented with 50 mM N-acetyl-D-glucosamine to inhibit asexual parasite proliferation, and changed daily. Sorbitol treatment was performed on Day 1, 5, and 6 to further remove asexual parasites. Gametocytes were magnetically enriched (positive selection) in a sterile column with a SuperMACSTM II magnet and eluted in culture media with 50 mM N-acetyl-D-glucosamine. These gametocytes were incubated overnight at 37 °C under microaerophilic conditions, and purity was assessed by examination under a light microscope (400× […]
# Gametocyte viability was assessed as described by Ridgway et al. (21) with modifications.
# Compounds or solvent controls (DMSO) were serially diluted across 96-well plates in culture media supplemented with 50 mM N-acetyl-D-glucosamine. Culture media without compound was used as a negative control. […]
# control to determine background gametocyte fluorescence. Stage III-IV gametocytes (Day 7) or stage V (day 10) gametocytes were concentrated and added to the plate with 200 µL per well. The plate was incubated for 48 hours at 37 °C under humid microaerophilic conditions.
# Parasites were then stained with 500 nM MitoTrackerTM Deep Red FM and 5 μg/ml Hoechst […]
# cytometer as described above. […]
# excluded. Live (positive) and dead (negative) gametocytes were differentiated by […]
# percentage of each was calculated. […]
smiles,measurement,setting,value
COc1cc(NC(C)CCCNC(=O)CCC(=O)OC(C)C)c2ncccc2c1 (stereo not shown) [PQ-link],IC50,[1],98.2 µM
same,"P. berghei liver stage growth, dose-response data points (Figure 3A)",P. berghei liver stages; 0.015241580 uM,92.27 and 99.03 and 108.7 and 82.7 and 111.9 and 105.4 and 99.3 and 85.25 and 115.4
same,"P. berghei liver stage growth, dose-response data points (Figure 3A)",P. berghei liver stages; 0.045724740 uM,97.1 and 81.64 and 78.74 and 103.7 and 110.1 and 105.2 and 93.19 and 87.52 and 92.15
same,"P. berghei liver stage growth, dose-response data points (Figure 3A)",P. berghei liver stages; 0.137174210 uM,100 and 94.2 and 80.68 and 93.41 and 113.2 and 98.29 and 109.9 and 94.24 and 87.26
same,Figure 3E dose-response value (replicates),P. berghei liver stages; 0.238281250 uM,98.59
same,"P. berghei liver stage growth, dose-response data points (Figure 3A)",P. berghei liver stages; 0.411522630 uM,112.6 and 99.03 and 80.68 and 102.2 and 100.8 and 100.3 and 103.8 and 90.84 and 80.37
same,Figure 3E dose-response value (replicates),P. berghei liver stages; 0.476562500 uM,90.54 and 104.6 and 95.37 and 97.54 and 101.7 and 100.2 and 97.21 and 100.9 and 86.29 and 94.55 and 90.62
same,"P. berghei liver stage growth, dose-response data points (Figure 3A)",P. berghei liver stages; 1.234567900 uM,102.9 and 94.2 and 112.6 and 111.7 and 103.5 and 88.53 and 119.6 and 97.91 and 82.29
same,Figure 3E dose-response value (replicates),P. berghei liver stages; 1.906250000 uM,91.51 and 91.73 and 86.54 and 84.53 and 94.62 and 101.5 and 100.5 and 102.9 and 93.23 and 96 and 85.81
same,"P. berghei liver stage growth, dose-response data points (Figure 3A)",P. berghei liver stages; 3.703703700 uM,97.1 and 64.25 and 91.3 and 55.79 and 60.08 and 47.34 and 73.56 and 51.31 and 52.36
same,Figure 3E dose-response value (replicates),P. berghei liver stages; 3.812500000 uM,95.8 and 93.79 and 78.58 and 83.98 and 89.72 and 104 and 93.76 and 101.5 and 80.15 and 95.42 and 85.86
same,Figure 3E dose-response value (replicates),P. berghei liver stages; 7.625000000 uM,98.29 and 86.67 and 78.83 and 80.78 and 88.54 and 106.8 and 100.5 and 90.89 and 82.41 and 82.35 and 77.49
same,"P. berghei liver stage growth, dose-response data points (Figure 3A)",P. berghei liver stages; 11.111111100 uM,24.64 and 16.91 and 28.5 and 18.53 and 18.77 and 20.08 and 31.94 and 26.35 and 21.2
same,Figure 3E dose-response value (replicates),P. berghei liver stages; 15.250000000 uM,60.3 and 56.28 and 80.98 and 77.04 and 83.07 and 85.06 and 90.81 and 88.28 and 61.89 and 72.05 and 69.51
same,Figure 3E dose-response value (replicates),P. berghei liver stages; 30.500000000 uM,25.91 and 29.38 and 68.25 and 66.32 and 65.97 and 65.87 and 62.35 and 59.29 and 31.73 and 40.4 and 41.06
same,"P. berghei liver stage growth, dose-response data points (Figure 3A)",P. berghei liver stages; 33.333333300 uM,3.382 (2×) and 4.348 and 16.15 and 16.87 and 15.2 and 10.82 and 11.34 and 9.511
same,Figure 3E dose-response value (replicates),P. berghei liver stages; 61.000000000 uM,6.18 and 4.905 and 12.31 and 10.74 and 14.16 and 15.86 and 12.88 and 14.9 and 2.822 and 2.591 and 2.429
same,"P. berghei liver stage growth, dose-response data points (Figure 3A)",P. berghei liver stages; 100.000000000 uM,-1.449 and -0.4831 and -2.415 and 1.984 and 3.77 and 1.865 and 3.403 and 2.705 and 2.007
same,IC50,"P. berghei liver stages; Plasmodium berghei, Huh-7, 48 h, read-out: IC50, P. berghei liver stage growth inhibition",5.7 µM
same,IC50,[2],13.3 µM
same,IC50,[3],27.1 µM
same,"Gametocyte stage V viability, percentage of control","[4]; 50.000000000 uM, replicate values, source data Fig. 2D",66.98% and 63.41% and 52.55% and 74.37% and 69.92% and 70.17%
same,"Gametocyte stage V viability, percentage of control","[4]; 100.000000000 uM, replicate values, source data Fig. 2D",11.39% (2×) and 9.662% and 17.36% and 16.33% and 21.17% and 48.62% and 50.63% and 48.77%
same,"Gametocyte stage V viability, percentage of control","[4]; 200.000000000 uM, replicate values, source data Fig. 2D",-1.011% and -1.165% and -0.9342% and -0.2117% and -0.2822% and -0.3175% and 0.4794% and 0.8647% and 0.8741%
same,viability at 6.25 µM,"[4]; Plasmodium falciparum, 6.250000000 uM, replicate values, source data Fig. 2D, read-out: Gametocyte stage V viability, percentage of control",103%
same,viability at 12.5 µM,"[4]; Plasmodium falciparum, 12.500000000 uM, replicate values, source data Fig. 2D, read-out: Gametocyte stage V viability, percentage of control",104%
same,viability at 25 µM,"[4]; Plasmodium falciparum, 25.000000000 uM, replicate values, source data Fig. 2D, read-out: Gametocyte stage V viability, percentage of control",87.6%
same,IC50,"[4]; Plasmodium falciparum, read-out: IC50, P. falciparum gametocyte stage V inhibition",70.5 µM

# — PMC11251039, “Harnessing cholesterol uptake of malaria parasites for therapeutic applications” (EMBO Molecular Medicine, 2024)
